{
  "source": "patent US9381169B2",
  "about": "“Pharmaceutical composition and use of the pharmaceutical composition for the treatment, prophylaxis or prevention of neoplastic diseases in humans and animals” (UNIVERSIDADE BANDEIRANTE DE SÃO PAULO—ACADEMIA PAULISTA …, priority 2009, dated 2016)",
  "key": {"[1]": {"system": "polychromatic erythrocytes", "details": "Wistar rats; for Observed frequencies of polychromatic erythrocytes with micronuclei in 1000 polychromatic erythrocytes: single intraperitoneal dose, cyclophosphamide 190 μM/Kg, DM-1 8 hours before cyclophosphamide", "text": "We used animals of the Wistar strain, males and females, with approximately 90 days old and weighing between 250 and 300 grams, maintained with water and food “ad libitum” and in accordance with the rules and procedures regarding the use of laboratory animals. The animals were divided into four groups:\nNegative control group—6 animals treated with a single dose of 0.7% saline solution.\nGroup treated with cyclophosphamide (positive control)—6 animals treated with a single dose of cyclophosphamide chemotherapy.\nIn all tests was administered 1 mL of the compound of interest intraperitoneally. […] Cyclophosphamide was administered at a concentration of 190 μM/Kg. The compounds were administered separately. At the end of the experiment (24 and 48 hours), animals were euthanized by deep general anesthesia induced by a lethal dose of sodium tiopentabarbital (CRMV, 2008).\nThis study allowed us to analyze the action of mutagenic compounds under study. Mutagenic compounds when administered in experimental animals cause changes in chromatin that can be identified by the formation of a mass within the nucleus called the micronucleus. The emergence of this mass is quantified and analyzed for their proportion to the capacity of a given drug or not to be mutagenic.\nFor micronucleus study we used the technique reported by Ribeiro et al. (Environmental Mutagenesis. Ulbra Publisher. Canoas: 1st edition, 2003.) For the staining of slides was used the technique described by Rabello-Gay et al. Apud SILVA, J. C. of; SILVA, S. of C. Evaluation of possible genotoxic effects of Gergilim (Sesamum indicum L., 2003).\nIn the test, the effect of the chemical agent is observed in anucleate polychromatic erythrocytes (ECPs), which have relatively short life span, so that it contains any micronucleus that was generated as a result of recent chromosomal damage. For the staining of slides was used Giemsa stain diluted in phosphate buffer at pH 6.8, in the ratio 1:10, for a period of 15 minutes. After staining, the slides were washed in distilled water to remove excess dye. To read the slides used an optical microscope and perform counting and analysis of 1000 polychromatic erythrocytes per slide, considering the frequency of micronucleated polychromatic erythrocytes.\nThe analysis was performed with cells increases 40× and 100× for the visualization of general morphology of the smears negative control group (FIG. 22), the groups treated with the compound DM1 and their polychromatic erythrocytes (FIGS. 23, 24 and 25). 1000 cells were analyzed per animal for the groups treated with DM1, negative control and cyclophosphamide for a total of 40,000 cells. The photodocumentation polychromatic erythrocytes was obtained by digital AVsoft. The group treated with cyclophosphamide was the positive control of the technique (FIG. 27).\nThe results were subjected to statistical analysis, the ANOVA test of variance followed by Tukey-Kramer multiple comparisons (parametric data) and the significance level of 5%, i.e., the probability P<0.05)."}, "Ehrlich tumor [2]": {"system": "Ehrlich tumor", "details": "Balb-c mice, intraperitoneal from day 7 after implant, DM-1 1.6 nM/kg daily, paclitaxel 15 μM/Kg, etoposide 3.73 mM/kg on days 1, 5, 10", "source_text": "(§7) We used 50 mice of the Balb-c strain, females and males, with approximately 25 g, aged approximately 6 to 8 weeks, with diet and water ad libitum, that were divided into 5 groups:\nCONTROL GROUP—10 animals implanted with tumor, which after 7 days of application, received daily intraperitoneal doses of saline 0.9%;\nPaclitaxel-treated group—10 animals implanted with tumor, which after 7 days of application, received intraperitoneal doses of paclitaxel chemotherapy in the 1st, 5th and 10th days of treatment;\nEtoposide-treated group—10 animals implanted with tumor, which after 7 days of application, received intraperitoneal doses of etoposide chemotherapy in the 1st, 5th and 10th days of treatment; […]\nTumor growth in mice was measured by the dimensions on the longitudinal and transverse abdominal cavity, with the aid of a digital caliper. […] The mean area (A), mass (M) and tumor burden (C) were calculated using the following equations, respectively: A=nπ2; L2×T=M/2 (where L is the measured longitudinal and transverse extent of the T waist circumference)."}, "Ehrlich tumor [3]": {"system": "Ehrlich tumor", "test": "Number of renal and splenic metastases, Ehrlich tumor", "format": "in vivo", "details": "Balb-c mice", "method": "As an experimental model of mammary adenocarcinoma, we used the Ehrlich tumor in mice of the Balb-c strain, with approximately 2 months of age and weighing between 20 to 25 grams. The maintenance of the tumor in vivo was performed by intraperitoneal administration of 10^7 cells every seven days.\nPaclitaxel and etoposide were administered at concentrations of 15 μM/Kg and 3.73 mM/kg, respectively, by intraperitoneal slow infusion in treatment regimens described in the literature on days 1, 5 and 10, after the 7th day of tumor implantation. The compounds were administered separately."}, "[4]": {"details": "cited from earlier work"}, "B16F10 melanoma [5]": {"system": "B16F10 melanoma", "test": "Survival rate, B16F10 melanoma", "format": "in vivo, mice", "method": "(§1) Groups of mice of the C57Bl/6J strain were injected subcutaneously dorsally with 5×10^4 B16F10 melanoma tumor cells under sterile conditions. The animals were observed every 72 hours and tumor growth monitored until the average diameter of […].\n(§2) Paclitaxel-treated group—10 animals with B16F10 melanoma tumor, which after the 11th day of tumor implantation, received intraperitoneal doses of paclitaxel chemotherapy in […] of treatment;\n(§3) After 14 days, the animals received implantation of B16F10 melanoma cells and received no treatment until the end of the experiment.\n(§4) Paclitaxel was administered at a concentration of 15 μM/Kg, via intraperitoneal slow infusion, the treatment regimens described in the literature on days 1, 5 and 10, after the 7th day of tumor implantation. The compounds were administered separately."}, "B16F10 melanoma cells": {"system": "B16F10 melanoma cells", "test": "Cell cycle phases and apoptosis of dorsal tumor cells (propidium iodide, FACSCalibur)", "format": "in vivo, mice", "method": "The cells were then frozen and kept in liquid nitrogen. After incubation with propidium iodide, the analysis was performed on a FACSCalibur cytometer. The results were expressed as mean percentage of cells in different phases of the cell cycle, debris and necrosis, apoptosis (sub-G1), quiescent non-proliferating cells G0/G1, S phase—synthesis of genetic material and G2/M at the beginning of cell division."}, "B16F10 melanoma [6]": {"system": "B16F10 melanoma", "test": "Tumor growth (dorsal tumor area), B16F10 melanoma", "format": "in vivo", "details": "C57Bl/6J mice", "method": "as §1\nControl group—10 animals with B16F10 melanoma tumor, which after the 11th day of tumor implantation, received daily intraperitoneal doses of saline 0.9%;\nas §2, §3, §4"}, "[7]": {"test": "Hematologic evaluation (erythrocytes, leukocytes, platelets), B16F10 melanoma", "format": "in vivo, mice", "details": "for platelet counts during treatment compared to the control group: B16F10 melanoma mice", "method": "(§5) The compounds were administered separately.\nThe blood of animals with B16F10 melanoma tumor was harvested in the 6th and 14th day during treatment with the compound DM-1 and prior to the inoculation of B16F10 cells. In the charts, collections for the day 6 were named 1A, while those relating to day 14 were named 2A. After implantation, tumor blood were collected in the second, sixth and tenth days of treatment (after treatment with DM-1) in all groups of animals, and these collections were named 1B and 2B and 3B, respectively."}, "tumor cell lines": {"system": "tumor cell lines", "details": "PCT/BR2007/000175 and PI0602640-0; cited from earlier work"}, "Ehrlich tumor [8]": {"system": "Ehrlich tumor", "test": "Macroscopic spleen volume, Ehrlich tumor", "details": "all experimental protocols with DM-1", "procedure": "as §7\nThe spleens of animals from all experimental groups were analyzed for the display of nodes and metastases."}, "B16F10 melanoma [9]": {"system": "B16F10 melanoma", "test": "Internal metastases, B16F10 melanoma", "format": "in vivo, mice", "method": "as §1, §2\n(§6) Group pre-treated with the DM-1 compound prior to the implant of B16F10 melanoma cells—10 animals were treated with daily doses of the compound DM-1 for 14 days before implantation of tumor cells. After 14 days, the animals received implantation of B16F10 melanoma cells and received no treatment until the end of the experiment.\nas §6, with “cells and post-treated with DM-1 compound—10” for “cells—10”, “continued to receive daily” for “received no”, “with” for “until”, “compound DM-1 for another 14 days.” for “end of the experiment.”\nas §5"}, "[10]": {"details": "group pre and post treated with DM-1"}},
  "note": "Read-outs that look alike come from different tables or passages of the source.",
  "data": [
    {"smiles": "O=P1(N(CCCl)CCCl)NCCCO1", "note": "(centres unmarked) [Cyclophosphamide, cyclophosphamide]", "values": [
      {"measurement": "cells with micronuclei found in the group", "setting": "[1]; bone marrow smears", "value": "more than 200 cells"},
      {"measurement": "Observed frequencies of polychromatic erythrocytes with micronuclei in 1000 polychromatic erythrocytes", "setting": "[1]; DM-1 140 μM/Kg, 24 Hours", "value": "36.5 ± 1.0"},
      {"measurement": "Observed frequencies of polychromatic erythrocytes with micronuclei in 1000 polychromatic erythrocytes", "setting": "[1]; DM-1 140 μM/Kg, 48 Hours", "value": "35.5 ± 1.0"},
      {"measurement": "frequency of micronucleated polychromatic erythrocytes in 1000 cells", "setting": "[1]; positive control group", "value": "36 /1000"}
    ]},
    {"smiles": "COc1cc([C@@H]2c3cc4c(cc3[C@@H](O[C@@H]3O[C@@H]5CO[C@@H](C)O[C@H]5[C@H](O)[C@H]3O)[C@H]3COC(=O)[C@H]23)OCO4)cc(OC)c1O", "note": "[etoposide]", "values": [
      {"measurement": "median values of tumor area", "setting": "Ehrlich tumor [2]", "value": "8.6±1.0", "unit": "cm^2"},
      {"measurement": "decrease of metastases in kidney", "setting": "Ehrlich tumor [3]", "value": 10, "unit": "%"},
      {"measurement": "decrease of metastases in spleen", "setting": "Ehrlich tumor [3]", "value": 30, "unit": "%"}
    ]},
    {"smiles": "C[C@@H](CN1CC(=O)NC(=O)C1)N1CC(=O)NC(=O)C1", "note": "[Dexrazoxane]", "values": [
      {"measurement": "rates of cell damage", "setting": "[4]; as co-adjuvant: dexrazoxane with etoposide, amifostine with cisplatin or paclitaxel", "value": "> 45", "unit": "%"}
    ]},
    {"smiles": "CC(=O)O[C@H]1C(=O)[C@@]2(C)[C@H]([C@H](OC(=O)c3ccccc3)[C@]3(O)C[C@H](OC(=O)[C@H](O)[C@@H](NC(=O)c4ccccc4)c4ccccc4)C(C)=C1C3(C)C)[C@]1(OC(C)=O)CO[C@@H]1C[C@@H]2O", "note": "[paclitaxel, reference compound]", "values": [
      {"measurement": "median values of tumor area", "setting": "Ehrlich tumor [2]", "value": "11.4±1", "unit": "cm^2"},
      {"measurement": "decrease of metastases in kidney", "setting": "Ehrlich tumor [3]", "value": 30, "unit": "%"},
      {"measurement": "decrease of metastases in spleen", "setting": "Ehrlich tumor [3]", "value": 50, "unit": "%"},
      {"measurement": "increase of survival rate", "setting": "B16F10 melanoma [5]; treated after tumor implantation", "value": "no significant changes"},
      {"measurement": "proportion of cells killed by necrosis", "setting": "B16F10 melanoma cells; compared to control and DM-1 groups", "value": "significant increase"},
      {"measurement": "tumor area", "setting": "B16F10 melanoma [6]; B16F10, treated after tumor implantation, paclitaxel 15 μM/Kg i.p., DM-1 0.83 nM/kg daily", "value": 9.4, "unit": "cm^2"},
      {"measurement": "platelet counts during treatment compared to the control group", "setting": "[7]", "value": "increase"}
    ]},
    {"smiles": "O=S(=O)(O)CCS", "note": "[Mesna]", "values": [
      {"measurement": "antimutagenic action", "setting": "[4]; in combination with paclitaxel", "value": "moderate"}
    ]},
    {"smiles": "COc1cc(C=CC(=O)C=Cc2ccc(O)c(OC)c2)ccc1[O-].[Na+]", "note": "[DM-1, sodium 4-[5-(4-hydroxy-3-methoxy-phenyl)-3-oxo-penta-1,4-dienil]-2-methoxy-phenolate]", "values": [
      {"measurement": "antiproliferative activity", "setting": "tumor cell lines", "value": "significant"},
      {"measurement": "immunosuppression in animals with Ehrlich ascites tumor", "setting": "Ehrlich tumor [8]", "value": "suppressed"},
      {"measurement": "Observed frequencies of polychromatic erythrocytes with micronuclei in 1000 polychromatic erythrocytes", "setting": "[1]; DM-1 140 μM/Kg, 24 Hours", "value": "2.4 ± 0.5"},
      {"measurement": "Observed frequencies of polychromatic erythrocytes with micronuclei in 1000 polychromatic erythrocytes", "setting": "[1]; DM-1 140 μM/Kg, 48 Hours", "value": "2.2 ± 0.5"},
      {"measurement": "micronuclei in bone marrow smears (in words)", "setting": "[1]; DM-1 140 μM/Kg, alone or 8 hours before cyclophosphamide 190 μM/Kg", "value": "not found significant changes"},
      {"measurement": "formation of lung and liver metastases", "setting": "B16F10 melanoma [9]; [10]", "value": "inhibition"},
      {"measurement": "formation of lung and liver metastases", "setting": "B16F10 melanoma [9]; group pre-treated with DM-1", "value": "inhibition"},
      {"measurement": "increase of survival rate", "setting": "B16F10 melanoma [5]; group pre- and post-treated with DM-1", "value": 30, "unit": "%"},
      {"measurement": "increase of survival rate", "setting": "B16F10 melanoma [5]; group pre-treated with DM-1", "value": 50, "unit": "%"},
      {"measurement": "percentage of cells in sub-G1 (apoptotic) phase", "setting": "B16F10 melanoma cells; [10]", "value": "increased significantly"},
      {"measurement": "percentage of cells in sub-G1 (apoptotic) phase", "setting": "B16F10 melanoma cells; group pre-treated with DM-1", "value": "increased significantly"},
      {"measurement": "proportion of quiescent cells in G0/G1 phase", "setting": "B16F10 melanoma cells; protocols of treatment with DM-1", "value": "reduce"},
      {"measurement": "dorsal tumor area, average values", "setting": "B16F10 melanoma [6]; pre and post treated with DM-1 0.83 nM/kg daily, 14 days before and 14 days after B16F10 implant", "value": "7.3±1.3", "unit": "cm^2"},
      {"measurement": "dorsal tumor area, average values", "setting": "B16F10 melanoma [6]; pretreated with DM-1 0.83 nM/kg daily for 14 days before B16F10 implant, no later treatment", "value": "6.5±1.7", "unit": "cm^2"},
      {"measurement": "platelet counts during treatment compared to the control group", "setting": "[7]", "value": "significant reductions"},
      {"measurement": "erythrocytes (anemia)", "setting": "[7]; mice treated with DM-1", "value": "does not induce anemia"}
    ]}
  ]
}
